Patent publication EP2974743B1, “CYCLODEXTRIN CARRIER-BASED ARTEANNUIN COMPOUND CONJUGATE AND PREPARING METHOD THEREOF” (KPC Pharmaceuticals, Inc., priority 2012, dated 2014)

What was measured:
Lovo = test: MTT assay, tumor cell growth inhibition; format: cell-based; conditions: human rectal cancer cells Lovo, 48h culture with compound
Procedure: (§1) For example, 180 µl suspension of human rectal cancer cells HCT116, Lovo, SW480 and HT29 (at a concentration of 4×10^4/mL) was added to a 96 well plate, and pre-cultured under 5% CO2, 37°C and saturated moisture for 24h. 150 µl medium was replaced, and 20 µl medium containing molecular assembly at different concentrations was added. The cells were cultured for another 48h, with the medium free of a sample as a negative control, and a medium containing camptothecin, oxaliplatin or fluorouracil at different concentrations as positive controls. MTT assay was used to determine the OD value, and the growth inhibition rate was calculated. The inhibition of compounds at high, medium and low concentration on the tumor cell proliferation was observed. All the experiments above were performed in triplet. The results of in vitro experiment of the arteannuin cyclodextrin conjugate on human rectum and caecum cancer cell are shown in table 1. Table 1. The comparison of IC50 values (µM) for the cyclodextrin carrier-based arteannuinoid compound conjugate according to the present disclosure and some arteannuinoid compounds in several rectal cancer cells.

HCT116 = test: MTT assay, tumor cell growth inhibition; format: cell-based; conditions: human rectal cancer cells HCT116, 48h culture with compound
Procedure: as §1

HT 90 = test: MTT assay, tumor cell growth inhibition; format: cell-based; conditions: human rectal cancer cells HT 90 (text: HT29), 48h culture with compound
Procedure: as §1

SW480 = test: MTT assay, tumor cell growth inhibition; format: cell-based; conditions: human rectal cancer cells SW480, 48h culture with compound
Procedure: as §1

solubility in water = format: physicochemical; conditions: in words
From the text: Also, the cyclodextrin carrier-based arteannuinoid compound is absorbed in merely a small amount when passing through stomach and small intestine of a human body, which is mainly absorbed by the large intestine, with a property of releasing in straight cecum. Therefore, the cyclodextrin carrier-based arteannuinoid compound according to the present disclosure can effectively enter the body of a patient, improving the bioavailability.

[1] = test system: mouse hepatocarcinoma H22; conditions: 300 mg/kg by gavage; cited from earlier work

mono-6-artesunate-β-cyclodextrin conjugate [Example 1]
IC50 (Lovo): 0.72 µM | IC50 (HCT116): 0.84 µM | IC50 (HT 90): 5.3 µM | IC50 (SW480): 3.92 µM

C[C@H]1[C@H](OC(=O)CCC(=O)O)O[C@@H]2O[C@@]3(C)CC[C@H]4[C@H](C)CC[C@@H]1[C@@]24OO3 [artesunate]
solubility in water (solubility in water): almost insoluble in water | anti-tumor rate [1]: above 40%
